The nature of series [1]: Cell viability of uninfected drug control wells, CEM-SS cells (XTT). Type of series: cell-based. The note with it: human, read-out: TC50. The procedure:
(§1) (a) Anti-HIV Cytoprotection Evaluation: Inhibition of virus-induced cytopathic effects (CPE) and cell viability following HIV replication in CEM-SS cells were measured by the use of XTT tetrazolium dye. CEM-SS cells (2.5×10^3 cells per well) were seeded in 96-well U-bottomed tissue culture plates in RPMI medium supplemented with 10% FBS, 2 mM L-glutamine, 100 U/ml penicillin and 100 μg/ml streptomycin. Serially diluted compounds (6 concentrations) and HIV-1RF diluted to a pre-determined titer to yield 85 to 95% cell killing at 6 days post-infection were be added to the plate. AZT was evaluated in parallel as a positive control. Following incubation at 37° C., 5% CO2 for six days, cell viability was measured by XTT staining. The optical density of the cell culture plate will be determined spectrophotometrically at 450 and 650 nm using Softmax Pro 4.6 software. Percent CPE reduction of the virus-infected wells and the percent cell viability of uninfected drug control wells was calculated to define the EC50, TC50 and therapeutic index (TI50) using Microsoft Excel Xlfit4.
as §1, with “Inhibition” for “(a) Anti-HIV Cytoprotection Evaluation: Inhibition”, “by” for “by the use of”, “wells were” for “wells was”
In general terms: Tetrazolium assays rely on reduction of a dye to a coloured formazan, in cell work by metabolically active cells.

The next series concerns HIV-192RW009. The series can be described thus: Anti-HIV-1 cytoprotection assay in PBMCs (reverse transcriptase in supernatant). Type of series: cell-based. The note with it: Human immunodeficiency virus 1, 168 h; PBMC, HIV-192RW009, 7 days. As for the experimental part: (§2) (b) Anti-HIV-1 Cytoprotection Assay in PBMCs: PHA-P stimulated PBMCs from three donors were pooled together and re-suspended in fresh tissue culture medium at 1×10^6 cells/ml and plated in the interior wells of a 96 well round bottom microplate at 50 μL/well. A 100 μL volume of 2× concentrations of compound-containing media were transferred to the round-bottom 96-well plate containing the cells in triplicate. Fifty microliters (50 μL) of HIV-1 at a pre-determined dilution was added. Each plate contained cell control wells and virus control wells in parallel with the experimental wells. After 7 days in culture, efficacy was evaluated by measuring the reverse transcriptase in the culture supernatants and the cells were stained with the tetrazolium dye XTT to evaluate cytotoxicity.

The test system of the next series is HIV-1RF. As to the kind of experiment: Anti-HIV cytoprotection evaluation in CEM-SS cells (CPE inhibition, XTT). It counts as cell-based. The following applies: Human immunodeficiency virus 1, 144 h, 6 days. As for the experimental part: as §1
as §1, with “Inhibition” for “(a) Anti-HIV Cytoprotection Evaluation: Inhibition”, “by” for “by the use of”, “wells were” for “wells was”

Series [2] can be described thus: Cytotoxicity in PBMCs (XTT). It counts as cell-based. The following applies: human, PHA-P stimulated PBMCs pooled from three donors; PBMC, HIV-192RW009, 7 days, XTT; read-out: TC50. The procedure: as §2
as §2, with “This Example illustrates anti-HIV cytoprotection provided by compounds” for “(b) Anti-HIV-1 Cytoprotection Assay”, “accordance with another aspect of the invention, namely in PBMCs.” for “PBMCs:”

Series [3] can be described thus: Pharmacokinetic study in male CD-1 mice. It counts as in vivo. The note with it: for AUC0-inf: 5 mg/kg; for AUC0-inf / AUC(0-t) / Cmax / MRT inf / Tmax / half-life / tlast: single IV bolus 5 mg/kg of compound 17, male CD-1 mice, plasma, 18 and 19 measured as metabolites; for AUC(0-t) / Cmax / MRT inf / Tmax / half-life: mouse. As for the experimental part: Male CD-1 mice weighing between […] were dosed via orbital sinus injection and blood was collected via submandibular vein. IV dosing solutions were prepared in DMSO:PEG400:Saline (5:35:60, v/v/v) at 1 mg/mL concentration of the prodrug. Blood samples (50 μL each time point) were obtained via Culex at predetermined time points (0, 5, 15, 30, 60, 120, 240, 360, 480 and 1440 min) after dosing. Plasma was obtained by centrifugation within 30 minutes after collection and aliquots of dosing solutions were taken and analyzed at the same time with plasma samples using a validated LC-MS/MS method developed on a Shimadzu HPLC system interfaced to a Sciex QTRAP 5500 mass spectrometer. Eluents were gradient mixtures of water and acetonitrile with 0.10% formic acid. HPLC column was ACE 5 C8, 50×2.1 mm, […]. PK parameters of the analytes were obtained using Phoenix®, WinNonlin® software (version 8.1).
The study was performed in male CD-1 mice to assess pharmacokinetics (PK) of prodrug 17 and its metabolites 18 and 19.

For series [4], the system named is simian immunodeficiency virus (SIV). The note with it: SAMT-247 in combination with ΔV1DNA-ALVAC/gp120/alum vaccine; Rahman et al., Nature Microbiology 8; cited from earlier work.
[5] abbreviates: male, CD-1, mouse, in vivo, iv, read-out: AUC0-inf.

Like-named read-outs stand apart in the source and are kept apart here.

By EC50 is commonly meant the concentration giving half of the maximal effect. A low value points to greater potency. The AUC(0-t) is the area under the concentration-time curve up to a stated or last time point. For orientation: Cmax means the maximum level reached in the sampled fluid or tissue. What is called MRT inf is the average time that molecules of a dose stay in the body. What is called Tmax is the time from dosing to the highest level. What is called half-life is the time needed for the level to fall by half in the phase considered.

In the case of `CCCC(=O)OCSc1ccccc1C(=O)NCCn1ccc(=O)c2cc(F)ccc21` [Compound 1, ((2-((2-(6-fluoro-4-oxoquinolin-1(4H)-yl)ethyl)carbamoyl)phenyl)thio)methyl butyrate], in series [1], the CC50 at 6 days worked out at 56.2 µM. For the same compound, the half-maximal effective concentration (EC50) turned out to be 2.48 µM with HIV-192RW009 and 0.56 µM in the series on HIV-1RF. In addition, in series [2], the CC50 at 7 days is above 100 µM.
Regarding `CCCC(=O)OCSc1ccccc1C(=O)NCCn1ccc(=O)c2cc3c(cc21)OCO3` [Compound 2, ((2-((2-(8-oxo-[1,3]dioxolo[4,5-g]quinolin-5(8H)-yl)ethyl)carbamoyl)phenyl)thio)methyl butyrate], in series [1], the CC50 at 6 days stood at 32.2 µM. In addition, the figures for the EC50 with HIV-192RW009 and in the series with HIV-1RF were 0.48 µM and 1.15 µM, respectively. For the same compound, the CC50 at 7 days in series [2] is above 100 µM.
`Cn1cnc([N+](=O)[O-])c1Sc1ccccc1C(=O)NCCn1ccc(=O)c2cc3c(cc21)OCO3` [Compound 3, 2-((1-methyl-4-nitro-1H-imidazol-5-yl)thio)-N-(2-(8-oxo-[1,3]dioxolo[4,5-g]quinolin-5(8H)-yl)ethyl)benzamide] gave a half-maximal effective concentration (EC50) with HIV-192RW009 of 17.7 µM. Also, in series [2], the CC50 at 7 days was above 100 µM.
As for `CCCC(=O)OCSc1ccccc1C(=O)NCCn1cc(C(=O)NCc2cccc(C)n2)c(=O)c2cc3c(cc21)OCO3` [Compound 4, ((2-((2-(7-(((6-methylpyridin-2-yl)methyl)carbamoyl)-8-oxo-[1,3]dioxolo[4,5-g]quinolin-5(8H)-yl)ethyl)carbamoyl)phenyl)thio)methyl butyrate], the CC50 at 6 days in series [1] is above 100 µM. Besides, the 50% effective concentration (EC50) in the series with HIV-192RW009 was determined as 1.09 µM; in the series with HIV-1RF, 0.48 µM. Besides, the CC50 at 7 days in series [2] was above 100 µM.
`CCCC(=O)OCSc1ccccc1C(=O)NCCn1cc(C(=O)NCc2ccccn2)c(=O)c2cc3c(cc21)OCO3` [Compound 5, ((2-((2-(8-oxo-7-((pyridin-2-ylmethyl)carbamoyl)-[1,3]dioxolo[4,5-g]quinolin-5(8H)-yl)ethyl)carbamoyl)phenyl)thio)methyl butyrate]: in series [1], the CC50 at 6 days was above 100 µM. The figures for the EC50 in the series with HIV-192RW009 and with HIV-1RF were 0.91 µM and 0.54 µM, respectively. Moreover, in series [2], the CC50 at 7 days was above 100 µM.
Compound `Cc1cccc(CNC(=O)c2cn(CCNC(=O)c3ccccc3Sc3c([N+](=O)[O-])ncn3C)c3cc4c(cc3c2=O)OCO4)n1` [Compound 6, 5-(2-(2-((1-methyl-4-nitro-1H-imidazol-5-yl)thio)benzamido)ethyl)-N-((6-methylpyridin-2-yl)methyl)-8-oxo-5,8-dihydro-[1,3]dioxolo[4,5-g]quinoline-7-carboxamide] showed an EC50 with HIV-192RW009 of 30.9 µM. Moreover, the CC50 at 7 days in series [2] is above 100 µM.
Turning to `Cc1cccc(CNC(=O)c2cn(CCNC(=O)c3ccccc3Sc3c([N+](=O)[O-])ncn3C)c3cc4c(cc3c2=O)OC(F)(F)O4)n1` [Compound 18, 2,2-difluoro-5-(2-(2-((1-methyl-4-nitro-1H-imidazol-5-yl)thio)benzamido)ethyl)-N-((6-methylpyridin-2-yl)methyl)-8-oxo-5,8-dihydro-[1,3]dioxolo[4,5-g]quinoline-7-carboxamide], the AUC0-inf in series [3] (setting [5]) came to 42.5 ng·h/mL. In series [3] (metabolite versus 17 after single IV bolus 5 mg/kg of 17, male mice), the “Exposure (AUC0-t) lower than that of 17” value is “approximately 17 fold”. For the same compound, in series [3] (in vivo), the AUC(0-t) came to 34.8 ng·h/mL, the Cmax was determined as 75.6 ng/mL, the MRT inf is 224 min and the Tmax was found to be 4.98 min. Also, in series [3] (in vivo), the half-life is 164 min. Moreover, in series [3], the tlast is given as 8.00 h and the AUC0-inf stood at 34.8 ng·h/mL.
As to `Cc1cccc(CNC(=O)c2cn(CCNC(=O)c3ccccc3S)c3cc4c(cc3c2=O)OC(F)(F)O4)n1` [Compound 19], in series [3] (setting [5]), the AUC0-inf came to 13.1 ng·h/mL. Besides, in series [3] (in vivo), the AUC(0-t) is 12.8 ng·h/mL, the Cmax is 46.9 ng/mL, the MRT inf was determined as 19.8 min and the time of peak concentration (Tmax) amounted to 4.98 min. Besides, the half-life in series [3] (in vivo) was 21 min. Further, in series [3], the tlast was 2.00 h and the AUC0-inf was 12.8 ng·h/mL.
For `CC(=O)Sc1ccccc1C(=O)NCCC(N)=O` [SAMT-247, 3-(S-acetylthiosalicyloyl)aminopropamide or N-[2-ccetylthiobenzoyl]-β-alaninamide], the “female macaques protected against vaginal acquisition of SIV” value in series [4] is 16 out of 20.

These data come from patent US20260216172A1, “COMPOUNDS AND METHOD FOR TREATING HIV INFECTION” (The United States of America, as represented by the …, priority 2023, published 2026).
